Numbering of substitutions follows the chain as printed. Read-outs that look alike come from different tables or passages of the source.
What was measured:
hM1 = molecular target: T1, hM1 (Homo sapiens, UniProt P11229); experiment: Calcium mobilization assay in CHO-K1 cells stably expressing human M1 (high throughput, FDSS 6000); assay type: cell-based; conditions: for Emax: HM1, read-out: Efficacy (% Max ACh)
T1 construct: host or cells: CHO-K1
T1 sequence (P11229 1-460): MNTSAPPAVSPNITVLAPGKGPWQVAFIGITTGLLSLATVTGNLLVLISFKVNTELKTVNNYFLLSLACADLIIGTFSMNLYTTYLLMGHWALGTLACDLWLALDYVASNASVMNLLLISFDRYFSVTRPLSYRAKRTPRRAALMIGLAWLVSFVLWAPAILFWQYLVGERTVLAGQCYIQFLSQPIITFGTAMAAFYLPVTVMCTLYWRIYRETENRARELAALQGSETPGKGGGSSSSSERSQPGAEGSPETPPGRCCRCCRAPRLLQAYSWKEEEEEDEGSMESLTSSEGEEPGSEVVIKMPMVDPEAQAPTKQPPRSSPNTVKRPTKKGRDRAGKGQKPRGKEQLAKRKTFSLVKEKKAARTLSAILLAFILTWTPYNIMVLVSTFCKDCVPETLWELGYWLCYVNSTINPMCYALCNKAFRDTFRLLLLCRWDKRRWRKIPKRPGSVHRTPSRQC
From the text: (§1) Chinese hamster ovary (CHO-K1) cells stably expressing rat (r) M1 were purchased from the American Type Culture Collection and cultured according to their indicated protocol. CHO cells stably expressing human (h)M2, hM3, and hM5 were described previously (Levey et al., 1991); hM1 and hM4 cDNAs were purchased from Missouri S&T cDNA Resource; rM4 cDNA was provided by T. I. Bonner (National Institutes of Health, Bethesda, Md.). hM1, hM4, and rM4 cDNAs were used to stably transfect CHO-K1 cells purchased from the American Type Culture Collection using Lipofectamine2000. To make stable hM2, hM4 and rM4 cell lines for use in calcium mobilization assays, these cells also were stably transfected with a chimeric G-protein (Gqi5) (provided by B. R. Conklin, University of California, San Francisco) using Lipofectamine 2000. rM1, hM3, and hM5 cells were grown in Ham's F-12 medium containing 10% heat-inactivated fetal bovine serum (FBS), 20 mM HEPES, and 50 μg/mL G418 sulfate. hM2-Gqi5 and hM4-Gqi5 cells were grown in the same medium also containing 500 μg/mL Hygromycin B. Stable rM4-Gqi5 cells were grown in DMEM containing 10% heat-inactivated FBS, 20 mM HEPES, 400 μg/mL G418 sulfate, and 500 μg/mL Hygromycin B. The rat M1 Y381A orthosteric mutant receptor cDNA was generated using the Quik-Change site-directed mutagenesis kit (Stratagene) and verified by sequencing. CHO-K1 cells were stably transfected with this cDNA using Lipofectamine2000 and screened for expression based on calcium mobilization in response to the allosteric M1 agonist N-desmethylclozapine.
For high throughput measurement of agonist-evoked increases in intracellular calcium, CHO-K1 cells stably expressing muscarinic receptors were plated in growth medium lacking G418 and hygromycin at 15,000 cells/20 μL/well (hM1, hM2-Gqi5, hM3, hM4-Gqi5, and hM5) in Greiner 384-well black-walled, tissue culture (TC)-treated, clear-bottom plates (VWR). Cells were incubated overnight at 37° C. and 5% CO2. The next day, cells were washed using an ELX 405 (BioTek) with three washes (50 μL) of assay buffer then aspirated to 15 μL. Next, 5 μL of 8 μM Fluo-4/acetoxymethyl ester (Invitrogen, Carlsbad, Calif.) prepared as a 2.3 mM stock in DMSO and mixed in a 1:1 ratio with 10% (w/v) Pluronic F-127 and diluted in assay buffer was added to the wells and the cell plates were incubated for 45 min at 37° C. and 5% CO2. Dye was removed by washing with the ELX 405 (three 50 μL washes of assay buffer) then aspirated to 20 μL. Agonist and compound master plates were formatted in an 11 point CRC format (1:3 dilutions) in 100% DMSO with a starting concentration of 10 mM using the BRAVO liquid handler (Agilent). Test compound CRCs were then transferred to daughter plates ([…]) using the Echo acoustic plate reformatter (Labcyte, Sunnyvale, Calif.) and then diluted into assay buffer (40 μL) to a 2× stock using a Thermo Fisher Combi (Thermo Fisher Scientific, Waltham, Mass.). Calcium flux was measured using the Functional Drug Screening System (FDSS) 6000 (Hamamatsu Corporation, Tokyo, Japan) as an increase in the fluorescent static ratio. 20 μL of Agonist Compounds were applied to cells using the automated system of the FDSS 6000 at 4 s into the 300 s protocol and the data were collected at 1 Hz. Concentration-response curves were generated using a four-parameter logistical equation in XLfit curve fitting software (IDBS, Bridgewater, N.J.) for Excel (Microsoft, Redmond, Wash.) or Prism (GraphPad Software, Inc., San Diego, Calif.).

rM1 = molecular target: T2, rM1 (Rattus norvegicus, UniProt P08482); experiment: Calcium mobilization assay in CHO-K1 cells stably expressing rat M1 (low throughput, Flexstation II); assay type: cell-based; conditions: for Emax: RM1, read-out: Efficacy (% Max ACh)
T2 construct: host or cells: CHO-K1
T2 sequence (P08482 1-460): T1 sequence (P11229 1-460) with A5V, T254S, P309S, R320K, A337G, I413V
From the text: as §1
For low throughput measurement of agonist-evoked increases in intracellular calcium, CHO-K1 cells stably expressing muscarinic receptors were plated in 100 μL of growth medium at 5×10^4 (rM1, hM3, and hM5) or 6×10^4 cells per well (rM1 Y381A, hM2, and rM4) in Costar 96-well black-walled, tissue culture (TC)-treated, clear-bottom plates (Fisher). Cells were incubated overnight at 37° C. and 5% CO2. The next day, medium was removed from the cells, and they were incubated with 50 μL of 2 μM Fluo-4/acetoxymethyl ester (Invitrogen, Carlsbad, Calif.) prepared as a 2.3 mM stock in DMSO and mixed in a 1:1 ratio with 10% (w/v) Pluronic F-127 and diluted in assay buffer [HBSS (Invitrogen) supplemented with 20 mM HEPES and 2.5 mM probenecid, pH 7.4] for 1 h at 37° C. and 5% CO2. Dye was removed and replaced with 50 μL of assay buffer. For calcium fluorescence measurements, CRCs of compounds (50 μl, 2×) were added 19 s after the beginning of data collection via a Flexstation II (Molecular Devices, Sunnyvale, Calif.). Fluorescence imaging continued for a total of 130 s acquisition time using an excitation wavelength of 488 nm, an emission wavelength of 525 nm, and a cutoff wavelength of 515 nm. All of the peaks of the calcium response were normalized to the response to a maximally effective concentration of ACh (ECmax). These normalized peak calcium response values were fit using GraphPad Prism version 4.0 to a four-parameter logistic equation to determine EC50 values.

[1] = agonist-evoked calcium mobilization, CHO-K1 hM1 cells, read-out: hM1 Potency (EC50)
[2] = agonist-evoked calcium mobilization, CHO-K1 rM1 cells, read-out: rM1 Potency (EC50)

Row | Structure (SMILES) | Emax (hM1) [%] | EC50 (hM1; [1]) [nM] | EC50 (rM1) [nM] | Emax (rM1) [%] | EC50 (rM1; [2]) [nM] | EC50 (hM1) [nM]
1 | CCOC(=O)N1C2CCC1CC(N1CC[C@@H](NC(=O)c3ccccc3)C1)C2 (stereo partly drawn) [Example 17, ethyl 3-((R)-3-benzamidopyrrolidin-1-yl)-8-azabicyclo[3.2.1]octane-8-carboxylate] | 54 | 160 | – | – | – | –
2 | CCOC(=O)N1C2CCC1CC(N1CCC[C@@H](NC(=O)c3ccccc3F)C1)C2 (stereo partly drawn) [Example 13, ethyl 3-((R)-3-(2-fluorobenzamido)piperidin-1-yl)-8-azabicyclo[3.2.1]octane-8-carboxylate] | 38 | 4200 | – | – | – | –
3 | CCOC(=O)N1C2CCC1CC(N1CCC[C@@H](NC(=O)c3ccc(F)cc3F)C1)C2 (stereo partly drawn) [Example 5, ethyl 3-((R)-3-(2,4-difluorobenzamido)piperidin-1-yl)-8-azabicyclo[3.2.1]octane-8-carboxylate] | – | – | 69 | 89 | – | –
4 | CCOC(=O)N1C2CCC1CC(N1CCC[C@@H](NC(=O)c3cc(F)cc(F)c3)C1)C2 (stereo partly drawn) [Example 10, ethyl 3-((R)-3-(3,5-difluorobenzamido)piperidin-1-yl)-8-azabicyclo[3.2.1]octane-8-carboxylate] | – | – | 96 | 90 | – | –
5 | CCOC(=O)N1C2CCC1CC(N1CCC[C@@H](NC(=O)c3cc(Cl)ccc3F)C1)C2 (stereo partly drawn) [Example 11, ethyl 3-((R)-3-(5-chloro-2-fluorobenzamido)piperidin-1-yl)-8-azabicyclo[3.2.1]octane-8-carboxylate] | – | – | – | 65 | 590 | –
6 | CCOC(=O)N1C2CCC1CC(N1CCC[C@@H](NC(=O)c3ccccc3)C1)C2 (stereo partly drawn) [Example 3, ethyl 3-((R)-3-benzamidopiperidin-1-yl)-8-azabicyclo[3.2.1]octane-8-carboxylate] | 79 | 1600 | – | 93 | 112 | –
7 | CCOC(=O)N1C2CCC1CC(N1CCC[C@@H](NC(=O)c3cccc(OC)c3)C1)C2 (stereo partly drawn) [Example 4, ethyl 3-((R)-3-(3-methoxybenzamido)piperidin-1-yl)-8-azabicyclo[3.2.1]octane-8-carboxylate] | 76 | – | 52 | 94 | – | 250
8 | CCOC(=O)N1C2CCC1CC(N1CCC[C@@H](NC(=O)c3ccc(F)c(C)c3)C1)C2 (stereo partly drawn) [Example 8, ethyl 3-((R)-3-(4-fluoro-3-methylbenzamido)piperidin-1-yl)-8-azabicyclo[3.2.1]octane-8-carboxylate] | – | – | 48 | 93 | – | –
9 | CCOC(=O)N1C2CCC1CC(N1CCC[C@@H](NC(=O)OC(C)(C)C)C1)C2 (stereo partly drawn) [Example 1, ethyl 3-((R)-3-((tert-butoxycarbonyl)amino)piperidin-1-yl)-8-azabicyclo[3.2.1]octane-8-carboxylate] | 29 | 2000 | – | 74 | 267 | –
10 | CCOC(=O)N1C2CCC1CC(N1CCC[C@@H](NC(=O)c3ccc(F)c(F)c3)C1)C2 (stereo partly drawn) [Example 12, ethyl 3-((R)-3-(3,4-difluorobenzamido)piperidin-1-yl)-8-azabicyclo[3.2.1]octane-8-carboxylate] | 68 | 750 | – | – | – | –
11 | CCOC(=O)N1C2CCC1CC(N1CCC[C@@H](NC(=O)c3ccccc3Cl)C1)C2 (stereo partly drawn) [Example 7, ethyl 3-((R)-3-(2-chlorobenzamido)piperidin-1-yl)-8-azabicyclo[3.2.1]octane-8-carboxylate] | 61 | – | 39 | 94 | – | 570
12 | CCOC(=O)N1C2CCC1CC(N1CCC[C@@H](NC(=O)c3c(F)cccc3F)C1)C2 (stereo partly drawn) [Example 15, ethyl 3-((R)-3-(2,6-difluorobenzamido)piperidin-1-yl)-8-azabicyclo[3.2.1]octane-8-carboxylate] | 66 | 330 | – | – | – | –
13 | CCOC(=O)N1C2CCC1CC(N1CCC[C@@H](NC(=O)c3cccc(C)c3)C1)C2 (stereo partly drawn) [Example 6, ethyl 3-((R)-3-(3-methylbenzamido)piperidin-1-yl)-8-azabicyclo[3.2.1]octane-8-carboxylate] | – | – | 41 | 94 | – | –
14 | CCOC(=O)N1C2CCC1CC(N1CCC[C@@H](NC(=O)c3ccc(F)cc3Cl)C1)C2 (stereo partly drawn) [Example 14, ethyl 3-((R)-3-(2-chloro-4-fluorobenzamido)piperidin-1-yl)-8-azabicyclo[3.2.1]octane-8-carboxylate] | 68 | 620 | – | – | – | –
15 | CCOC(=O)N1C2CCC1CC(N1CCC[C@@H](NC(=O)c3ccc(F)cc3)C1)C2 (stereo partly drawn) [Example 9, ethyl 3-((R)-3-(4-fluorobenzamido)piperidin-1-yl)-8-azabicyclo[3.2.1]octane-8-carboxylate] | – | – | 38 | 95 | – | –
16 | CCOC(=O)N1C2CCC1CC(N1CC[C@@H](NC(=O)c3ccccc3C)C1)C2 (stereo partly drawn) [Example 16, ethyl 3-((R)-3-(2-methylbenzamido)pyrrolidin-1-yl)-8-azabicyclo[3.2.1]octane-8-carboxylate] | 57 | 940 | – | – | – | –

— US20130197027A1, “HETEROCYCLYL-AZABICYCLO[3.2.1]OCTANE ANALOGS AS SELECTIVE M1 AGONISTS AND METHODS OF MAKING AND USING SAME” (priority 2010, published 2013)
